# Results taken from patent US8846655B2, “4-substituted-2-phenoxy-phenylamine delta opioid receptor modulators” (Janssen Pharmaceutica, NV, priority 2009, dated 2014).
# How the values were obtained:
# mice = assay: Mouse Graded Abdominal Irritant Test (GrAIT); type: in vivo; conditions: 10% Solutol, 30 min pretreatment
# Method: Test compound or vehicle was administered s.c. or p.o. to mice. Following the pretreatment time, an i.p. injection of 0.6% of acetic acid in 0.5 mL was administered. Five min after acetic acid administration, mice were placed into clear chambers and were continuously observed for 5 min. Behavioral responses including twisting and elongation of the body that extended through the hindlimbs were counted and averaged for the group of animals over the observation period.
# δ-opioid receptor = biological target: T1, δ-opioid receptor (Mus musculus, UniProt P32300); assay: [35S]GTPγS δ-opioid receptor functional assay (EC50, relative efficacy, % inhibition); type: biochemical
# T1 construct: NG108-15 cell membranes were purchased from Applied Cell Sciences (Rockville, Md.)
# Method: Incubation procedure: The pellet membranes (75 μg/mL) were preincubated with SPA (10 mg/mL) at 25° C. for 45 min in the assay buffer. […] GTPγS in the same Tris buffer containing 100 μM GDP in total volume of 200 pt. 200 nM of receptor agonists was used to stimulate [^35S]-GTPγS binding. The basal binding was tested in the absence of agonists and non-specific binding was tested in the presence of 10 μM unlabeled GTPγS.
# Compounds were tested for function as antagonists by evaluating their potential to inhibit agonist-stimulated GTPγS binding. Radioactivity was quantified on a Packard TopCount.
# mu opioid receptor = biological target: T2, mu opioid receptor (Rattus norvegicus, UniProt P33535); assay: Rat brain mu opioid receptor binding assay; conditions: rat forebrain membranes, ~0.8 nM [3H]DAMGO; read-out: μ-binding Ki
# T2 construct: the forebrains were homogenized in Tris buffer in a Teflon®-glass homogenizer; from tissue; host or cells: rat forebrain membrane homogenate (male Wistar rats)
# Method: Procedure: Male, Wistar rats (150-250 g, VAF, Charles River, Kingston, N.Y.) were killed by CO2, and their brains were removed and placed immediately in ice cold Tris HCl buffer (50 mM, pH 7.4). The forebrains were separated from the remainder of the brain by a coronal transection, beginning dorsally at the colliculi and passing ventrally through the midbrain-pontine junction. After dissection, the forebrains were homogenized in Tris buffer in a Teflon®-glass homogenizer. The homogenate was diluted to a concentration of 1 g of forebrain tissue per 80 mL Tris and centrifuged at 39,000×g for 10 min. The pellet was resuspended in the same volume of Tris buffer containing 5 mM MgCl2 with several brief pulses from a Polytron homogenizer. This particulate preparation was used for the mu opioid binding assays.
# delta opioid receptor [1] = biological target: T3, delta opioid receptor (Mus musculus, UniProt P32300); assay: [35S]GTPγS binding assay in NG108-15 cell membranes (delta opioid functional assay), 200 nM screen; type: biochemical; conditions: 200 nM compound; relative to calculated max of SNC80 dose response
# T3 construct: NG108-15 cell membranes were purchased from Applied Cell Sciences (Rockville, Md.); host or cells: NG108-15 cell membranes (purchased)
# Method: Methods: NG108-15 cell membranes were purchased from Applied Cell Sciences (Rockville, Md.). 5 mg/mL of membrane protein suspended in 10 mM TRIS-HCl pH 7.2, 2 mM EDTA, 10% sucrose. Membranes were maintained at 4-8° C. A 1 mL volume of membranes was added into 10 mL cold binding assay buffer. The assay buffer contained 50 mM Tris, pH 7.6, 5 mM MgCl2, 100 mM NaCl, 1 mM DTT and 1 mM EGTA. The membrane suspension was homogenized twice with a Polytron, and centrifuged at 3000 rpm for 10 min. The supernatant was then centrifuged at 18,000 rpm for 20 min. Ten mL assay buffer was added into the pellet containing tube. The pellet and buffer were mixed with a Polytron.
# Incubation procedure: The pellet membranes (75 μg/mL) were preincubated with SPA (10 mg/mL) at 25° C. for 45 min in the assay buffer. The SPA (5 mg/mL) coupled with membranes (37.5 μg/mL) was then incubated with 0.1 nM [^35S] GTPγS in the same Tris buffer containing 100 μM GDP in total volume of […]. 200 nM of receptor agonists was used to stimulate [^35S]-GTPγS binding. The basal binding was tested in the absence of agonists and non-specific binding was tested in the presence of 10 μM unlabeled GTPγS.
# Data % of Basal=(stimulated−non specific)*100/(basal−non specific). Relative Efficacy of a compound at 200 nM=(% of Basal of test compound at 200 nM)/(Calculated Max of SNC80 dose response. Curve in prism).
# delta opioid receptor [2] = biological target: T4, delta opioid receptor (Rattus norvegicus, UniProt P33533); assay: Rat brain delta opioid receptor binding assay; conditions: rat forebrain membranes, 0.25 nM [3H]naltrindole; read-out: δ-binding (Naltrindole ligand) Ki
# T4 construct: the forebrains were homogenized in Tris buffer in a Teflon®-glass homogenizer; from tissue; host or cells: rat forebrain membrane homogenate (male Wistar rats)
# Method: Procedure: Male, Wistar rats (150-250 g, VAF, Charles River, Kingston, N.Y.) were killed by CO2, and their brains were removed and placed immediately in ice cold Tris HCl buffer (50 mM, pH 7.4). The forebrains were separated from the remainder of the brain by a coronal transection, beginning dorsally at the colliculi and passing ventrally through the midbrain-pontine junction. After dissection, the forebrains were homogenized in Tris buffer in a Teflon®-glass homogenizer. The homogenate was diluted to a concentration of 1 g of forebrain tissue per 80 mL Tris and centrifuged at 39,000×g for 10 min. The pellet was resuspended in the same volume of Tris buffer containing 5 mM MgCl2 with several brief pulses from a Polytron homogenizer. […] To each sample area 2×50 μL of Betaplate Scint scintillation fluid (LKB) was added and the radioactivity was quantified on a LKB (Wallac) 1205 BetaPlate liquid scintillation counter.
# Analysis: The data from the scintillation counter were used to calculate either the % inhibition compared to control binding (when only a single concentration of test compound was evaluated) or a K1 value (when a range of concentrations was tested). Percent inhibition was calculated as: [(total dpm-test compound dpm)/(total dpm-nonspecific dpm)]*100. Kd and Ki values were calculated using GraphPad PRISM data analysis program.
# T2 sequence (P33535 whole entry): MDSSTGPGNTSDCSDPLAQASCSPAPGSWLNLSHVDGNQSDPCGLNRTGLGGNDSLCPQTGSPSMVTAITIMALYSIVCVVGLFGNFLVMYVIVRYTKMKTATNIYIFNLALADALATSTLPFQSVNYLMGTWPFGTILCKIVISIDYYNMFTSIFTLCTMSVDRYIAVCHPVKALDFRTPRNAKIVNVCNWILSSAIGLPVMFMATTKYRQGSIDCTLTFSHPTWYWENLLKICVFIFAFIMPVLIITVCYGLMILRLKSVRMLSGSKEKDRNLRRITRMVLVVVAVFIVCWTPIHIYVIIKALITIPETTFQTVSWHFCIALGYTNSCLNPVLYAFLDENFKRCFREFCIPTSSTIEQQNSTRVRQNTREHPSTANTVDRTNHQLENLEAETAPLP
# T1 sequence (P32300 whole entry): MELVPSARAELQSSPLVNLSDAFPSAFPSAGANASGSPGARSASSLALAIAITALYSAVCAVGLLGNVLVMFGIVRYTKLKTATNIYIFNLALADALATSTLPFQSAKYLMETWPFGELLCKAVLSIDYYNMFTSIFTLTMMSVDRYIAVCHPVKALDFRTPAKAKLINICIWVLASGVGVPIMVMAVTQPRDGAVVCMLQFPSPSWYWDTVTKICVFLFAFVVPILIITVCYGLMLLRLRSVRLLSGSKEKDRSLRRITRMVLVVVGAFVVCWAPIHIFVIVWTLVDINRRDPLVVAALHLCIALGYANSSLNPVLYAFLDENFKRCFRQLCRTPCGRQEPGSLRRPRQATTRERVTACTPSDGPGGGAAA
# T3 sequence (P32300 whole entry): as above
# T4 sequence (P33533 whole entry): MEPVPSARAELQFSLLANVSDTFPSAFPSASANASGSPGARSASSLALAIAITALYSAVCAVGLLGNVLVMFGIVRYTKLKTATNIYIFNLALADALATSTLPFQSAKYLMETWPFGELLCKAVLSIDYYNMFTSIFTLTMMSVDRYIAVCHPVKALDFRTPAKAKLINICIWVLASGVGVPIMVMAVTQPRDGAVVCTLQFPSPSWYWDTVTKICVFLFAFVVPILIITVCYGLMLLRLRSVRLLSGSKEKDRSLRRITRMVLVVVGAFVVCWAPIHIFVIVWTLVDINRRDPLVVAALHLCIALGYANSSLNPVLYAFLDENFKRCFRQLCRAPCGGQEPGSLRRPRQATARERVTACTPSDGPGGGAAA
Structure (SMILES),GTγPS δ-opioid receptor Rel Efficacy (δ-opioid receptor),Ki (mu opioid receptor) [µM],further results
"CCN(CC)C(=O)/C=C/c1ccc(NC[C@@H]2CCCN2)c(Oc2ccc(OC)cc2)c1 [Cpd 1, (2E)-N,N-Diethyl-3-[3-(4-methoxyphenoxy)-4-{[(2S)-pyrrolidin-2-ylmethyl]amino}phenyl]prop-2-enamide]",0.8328,,# abdominal stretches (cpd) (mice; 30 mg/kg s.c.): 10.9
"CCN(CC)C(=O)CCc1ccc(NC[C@@H]2CCCN2)c(Oc2ccc(OC)cc2)c1 [Cpd 2, N,N-Diethyl-3-[3-(4-methoxyphenoxy)-4-{[(2S)-pyrrolidin-2-ylmethyl]amino}phenyl]propanamide]",0.8333,,
COc1ccc(Oc2cc(CCc3cccc(OC)c3)ccc2NC[C@@H]2CCCN2)cc1 [Cpd 4],,> 10,
COc1ccc(Oc2cc(CCc3ccccc3)ccc2NC[C@@H]2CCCN2)cc1 [Cpd 5],,> 10,
COc1ccc(Oc2cc(CCc3ccc(F)cc3)ccc2NC[C@@H]2CCCN2)cc1 [Cpd 6],,> 10,
COc1ccc(Oc2cc(CCc3cccc(F)c3)ccc2NC[C@@H]2CCCN2)cc1 [Cpd 7],,> 10,
CCN(CC)C(=O)c1ccc(NC[C@@H]2CCCN2)c(Oc2ccc(OC)cc2)c1 [Cpd 10],,,# abdominal stretches (cpd) (mice; 30 mg/kg p.o.): 19; # abdominal stretches (cpd) (mice; 30 mg/kg s.c.): 11; # abdominal stretches (cpd) (mice; 100 mg/kg p.o.): 17.9; # abdominal stretches (cpd) (mice; 300 mg/kg p.o.): 21.2
CCN(CC)C(=O)c1ccc(NC[C@@H]2CCCN2)c(Oc2ccccc2OC)c1 [Cpd 11],,> 10,
N#Cc1cccc(Oc2cc(-c3ccccc3)ccc2NC[C@@H]2CCCN2)c1 [Cpd 13],,> 10,
c1ccc(Oc2cc(-c3ccccc3)ccc2NC[C@@H]2CCCN2)cc1 [Cpd 14],,> 10,
COc1cccc(Oc2cc(-c3ccccc3)ccc2NC[C@@H]2CCCN2)c1 [Cpd 15],,> 10,
Fc1ccc(Oc2cc(-c3ccccc3)ccc2NC[C@@H]2CCCN2)cc1 [Cpd 16],,> 10,
FC(F)(F)Oc1ccc(Oc2cc(-c3ccccc3)ccc2NC[C@@H]2CCCN2)cc1 [Cpd 17],,> 10,
Clc1cccc(Cl)c1Oc1cc(-c2ccccc2)ccc1NC[C@@H]1CCCN1 [Cpd 18],0.763,> 10,
COC(=O)c1ccc(Oc2cc(-c3ccccc3)ccc2NC[C@@H]2CCCN2)cc1 [Cpd 20],,> 10,
COC(=O)c1cccc(Oc2cc(-c3ccccc3)ccc2NC[C@@H]2CCCN2)c1 [Cpd 21],,> 10,
Clc1ccc(Oc2cc(-c3ccccc3)ccc2NC[C@@H]2CCCN2)c(Cl)c1 [Cpd 22],,> 10,
"COc1ccc(Oc2cc(-c3cncc(C#N)c3)ccc2NC[C@@H]2C[C@@H](F)CN2)cc1 [Cpd 24, (2S,4R)-5-[4-[(4-Fluoro-pyrrolidin-2-ylmethyl)-amino]-3-(4-methoxy-phenoxy)-phenyl]-nicotinonitrile]",1.0158,,GTPγS δ-RelEfficacy @200 nM (delta opioid receptor [1]): 1.01
COc1ccc(Oc2cc(-c3cncc(F)c3)ccc2NC[C@@H]2C[C@@H](F)CN2)cc1 [Cpd 25],1.0217,,GTPγS δ-RelEfficacy @200 nM (delta opioid receptor [1]): 0.78

Structure (SMILES),GTγPS δ-opioid receptor Rel Efficacy (δ-opioid receptor),Ki (mu opioid receptor) [µM],further results
COc1ccc(Oc2cc(-c3cncc(SC)c3)ccc2NC[C@@H]2C[C@@H](F)CN2)cc1 [Cpd 26],1.0716,,GTPγS δ-RelEfficacy @200 nM (delta opioid receptor [1]): 0.7
COc1ccc(Oc2cc(-c3cncc(OC)c3)ccc2NC[C@@H]2C[C@@H](F)CN2)cc1 [Cpd 27],,> 10,
COc1ccc(Oc2cc(-c3cncc(C)c3)ccc2NC[C@@H]2C[C@@H](F)CN2)cc1 [Cpd 28],0.8756,,
NC(=O)c1cccc(Oc2cc(-c3ccccc3)ccc2NC[C@@H]2CCCN2)c1 [Cpd 30],0.2668,,
O=C(O)c1cccc(Oc2cc(-c3ccccc3)ccc2NC[C@@H]2CCCN2)c1 [Cpd 32],,> 10,
CCN(CC)C(=O)c1cccc(Oc2cc(-c3ccccc3)ccc2NC[C@@H]2CCCN2)c1 [Cpd 34],,> 10,
"COc1ccc(Oc2cc(-c3ccccc3)ccc2NC[C@@H]2CCCN2)cc1 [Cpd 35, (S)-[3-(4-Methoxy-phenoxy)-biphenyl-4-yl]-pyrrolidin-2-ylmethyl-amine]",,> 10,
COc1ccc(Oc2cc(-c3cccc4ccccc34)ccc2NC[C@@H]2CCCN2)cc1 [Cpd 37],,> 10,
COc1ccc(Oc2cc(-c3ccncc3)ccc2NC[C@@H]2CCCN2)cc1 [Cpd 38],0.8323,4.36,Ki (delta opioid receptor [2]): 0.0155 µM; EC50 (δ-opioid receptor): 0.478 µM; inhibition at 10 µM (δ-opioid receptor; read-out: GTPγS δ-opioid receptor % Inh @10 μM): 16.4%
COc1ccc(Oc2cc(-c3cccnc3)ccc2NC[C@@H]2CCCN2)cc1 [Cpd 39],0.9245,,
COc1ccc(Oc2cc(-c3ccoc3)ccc2NC[C@@H]2CCCN2)cc1 [Cpd 40],,> 10,
COc1ccc(Oc2cc(-c3ccsc3)ccc2NC[C@@H]2CCCN2)cc1 [Cpd 41],,> 10,
COc1ccc(Oc2cc(-c3cncnc3)ccc2NC[C@@H]2CCCN2)cc1 [Cpd 42],,,GTPγS δ-RelEfficacy @200 nM (delta opioid receptor [1]): 0.39
COc1ccc(Oc2cc(-c3cncc(F)c3)ccc2NC[C@@H]2CCCN2)cc1 [Cpd 43],1.0908,,GTPγS δ-RelEfficacy @200 nM (delta opioid receptor [1]): 0.43
COc1ccc(Oc2cc(-c3cncc(C#N)c3)ccc2NC[C@@H]2CCCN2)cc1 [Cpd 44],1.1554,,GTPγS δ-RelEfficacy @200 nM (delta opioid receptor [1]): 0.45
"Oc1ccc(Oc2cc(-c3cccnc3)ccc2NC[C@@H]2CCCN2)cc1 [Cpd 45, (S)-4-{5-Pyridin-3-yl-2-[(pyrrolidin-2-ylmethyl)-amino]-phenoxy}-phenol]",0.627,,
"COc1ccc(Oc2cc(-c3ccccc3)ccc2N2CCNCC2)cc1 [Cpd 46, 1-[3-(4-Methoxy-phenoxy)biphenyl-4-yl]piperazine]",,> 10,
COc1ccc(Oc2ccc(NC[C@@H](N)CO)c(Oc3ccc(OC)cc3)c2)cc1 [Cpd 55],,> 10,
"CNCCNc1ccc(Oc2ccc(OC)cc2)cc1Oc1ccc(OC)cc1 [Cpd 63, N-[2,4-Bis-(4-methoxy-phenoxy)-phenyl]-N′-methyl-ethane-1,2-diamine]",,> 10,
